Measurements as given in publication PMC6389993, “Quercetin and its metabolite isorhamnetin promote glucose uptake through different signalling pathways in myotubes” (Scientific Reports, 2019).

Experiments:
Assay type in all cases: cell-based, rat
[1] = test system: PKCζ/λ; assay: Phosphorylation of PKCζ/λ in L6 myotubes; details: 10 nM, data not shown
[2] = test system: JAK2; assay: Phosphorylation of JAK2 in L6 myotubes (western blot); details: 15 min; for phosphorylation of JAK2: higher concentrations (1 μM and 10 μM)
Experimental: (§1) For in vitro cell culture experiments, after serum starvation for 18 h, myotubes were treated with various concentrations of quercetin or isorhamnetin (0.1–10 nM) for 15 min; DMSO (final 0.1%) was used as a vehicle control. As positive controls, 100 nM insulin, 1 mM AICAR, 10 nM leptin, or 100 ng/mL IL-15 were used for insulin, AMPK, JAK2/STAT, or JAK3/STAT signalling pathways, respectively. Cells were treated with insulin or AICAR for 15 min, leptin for 60 min, or IL-15 for 24 h. Whole protein and plasma membrane fractions were prepared from myotubes, as previously described. For in vivo experiment, plasma membrane fraction and tissue lysate of soleus muscle were prepared.
Translocation of GLUT4 to the plasma membrane, as well as expression and phosphorylation levels of GLUT4-related regulators were estimated by western blot analysis. Briefly, equal amounts of proteins were separated by sodium dodecyl sulfate-polyacrylamide gel electrophoresis (SDS-PAGE). Separated proteins were transferred onto a polyvinylidene fluoride membrane and nonspecific binding sites were blocked using either Blocking One (to detect unphosphorylated proteins) or Blocking One-P (to detect phosphoproteins). […] Specific immune complexes were developed using ImmunoStar® LD and detected with an ATTO Light-Capture II Western Blotting Detection System. Individual band density was calculated by ImageJ and normalized to the control. […]
(§2) 59 complexes were developed using ImmunoStar® LD and detected with an ATTO Light-Capture
(§3) 60 Ⅱ Western Blotting Detection System. Individual band density was calculated by ImageJ and […]

[3] = test system: L6 myotubes; assay: Enzymatic 2DG glucose uptake assay in L6 myotubes; details: 4 h; for glucose uptake, shape of concentration dependence: 0.01–10^4 nM
Experimental: (§4) In vitro cultured cell experiments were conducted according to a previously described protocol[6],[14]. Briefly, L6 myoblasts derived from rat skeletal muscle and of less than 40 passages were maintained in MEM supplemented with 10% foetal bovine serum (FBS) and antibiotics (100 U/ml penicillin and 100 μg/ml streptomycin) at 37 °C under a humidified atmosphere condition of 5% CO2 and 95% air. In each experiment, cells (2.2 × 10^4 cells/ml) were seeded into 96-well plates or 60-mm dishes for induction of differentiation into mature myotubes. After reaching confluence, cells were supplemented with differentiation medium containing 2% FBS and the same antibiotics for 7 days. Cells were used for each experiment after morphological analysis of differentiation status using phase-contrast microscopy. To explore the contribution of CaMKKβ or intracellular-free calcium ions in quercetin- and isorhamnetin-stimulated GLUT4 translocation, L6 cells were incubated in the presence or absence of 10 μM STO-609 and 25 μM […], respectively, for 30 min prior to treatment with either quercetin or isorhamnetin.
After serum starvation by incubating L6 myotubes in MEM with 0.2% BSA for 18 h, cells were treated with quercetin and isorhamnetin at the specified concentration (0.01 nM–10 μM) for 4 h in 0.2% BSA-containing medium. DMSO and insulin (100 nM) were used as a vehicle control and positive control, respectively. Glucose uptake was measured by an enzymatic 2DG uptake assay using myotubes on a 96-well plate as previously described.

[4] = test system: GLUT4; assay: GLUT4 translocation in L6 myotubes after siRNA knockdown of AMPKα, JAK2 or JAK3; details: for compound-induced GLUT4 translocation after siRNA for AMPK: siAMPKα 50 nM 48 h, 1 mM AICAR; for compound-induced GLUT4 translocation after siRNA for AMPK / compound-induced GLUT4 translocation after siRNA for JAK2: 1 nM quercetin or isorhamnetin; for compound-induced GLUT4 translocation after siRNA for JAK2: siJAK2 50 nM 48 h, 10 nM leptin
Experimental: as §1
(§5) Translocation of GLUT4 to the plasma membrane, as well as expression and phosphorylation levels of GLUT4-related regulators were estimated by western blot analysis. Briefly, equal amounts of proteins were separated by sodium dodecyl sulfate-polyacrylamide gel electrophoresis (SDS-PAGE). Separated proteins were transferred onto a polyvinylidene fluoride membrane and nonspecific binding sites were blocked using either Blocking One (to detect unphosphorylated proteins) or Blocking One-P (to detect phosphoproteins). The membrane was incubated overnight with an appropriate primary antibody for GLUT4 (1:5000), IR (1:10000), p-IRS1 (1:5000), IRS1 (1:5000), p-PI3K (1:5000), PI3K (1:10000), p-Akt (1:5000), Akt (1:10000), p-AMPKα (1:5000), AMPKα (1:10000), p-ACC (1:5000), ACC (1:10000), p-LKB1 (1:5000), LKB1 (1:10000), p-JAK2 (1:5000), JAK2 (1:5000), p-JAK3 (1:5000), JAK3 (1:10000), p-STAT1 (1:5000), STAT1 (1:10000), p-STAT3 (1:5000), STAT3 (1:10000), p-STAT5 (1:5000), STAT5 (1:10000), or β-actin (1:20000), and subsequently treated with the corresponding horseradish peroxidase-conjugated secondary antibody (1:50000) for 1 h. Specific immune complexes were developed using ImmunoStar® LD and detected with an ATTO Light-Capture II Western Blotting Detection System. Individual band density was calculated by ImageJ and normalized to the control.
Mature myotubes were cultured in antibiotic-free medium and transfected with siRNA at a final concentration of 50 nM using Lipofectamine RNAiMAX transfection reagent according to the manufacturer’s instructions. In brief, mature myotubes were transfected with siRNA in Opti-MEM for 48 h. Subsequently, the medium was changed to fresh Opti-MEM and cells were treated with the indicated concentrations of quercetin or isorhamnetin.

[5] = test system: Akt; assay: Phosphorylation of Akt in L6 myotubes (western blot); details: 15 min; for Akt phosphorylation at Ser473: higher concentrations (1 μM and 10 μM)
Experimental: as §1, §5
(§6) 42 after morphological analysis of differentiation status using phase-contrast microscopy.
(§7) 43 Preparation of whole protein and plasma membrane fractions After serum starvation
(§8) 44 for 18 h, myotubes were treated with various concentrations of quercetin or isorhamnetin (1–
45 10 μM) for 15 min; DMSO (final 0.1%) was used as a vehicle control. As positive controls,
46 100 nM insulin, 1 mM AICAR, or 10 nM leptin were used for insulin, AMPK or JAK2/STAT
47 signalling pathways, respectively. Cells were treated with insulin or AICAR for 15 min, or
48 leptin for 60 min. […]
as §2, §3

[6] = test system: AMPK; assay: Phosphorylation of AMPK in L6 myotubes (western blot); details: 15 min
Experimental: as §4, §1, §5, §6, §7, §8
45 10 μM) for 15 min; DMSO (final 0.1%) was used as a vehicle control. As positive controls, […]

[7] = test system: STAT3; assay: Phosphorylation of STAT3 in L6 myotubes (western blot); details: 10 nM, 15 min
Experimental: as §1
Translocation of GLUT4 to the plasma membrane, as well as expression and phosphorylation levels of GLUT4-related regulators were estimated by western blot analysis. Briefly, equal amounts of proteins were separated by sodium dodecyl sulfate-polyacrylamide gel electrophoresis (SDS-PAGE). […] Specific immune complexes were developed using ImmunoStar® LD and detected with an ATTO Light-Capture II Western Blotting Detection System. Individual band density was calculated by ImageJ and normalized to the control.

[8] = 0.01 nM to 1 nM, compared with vehicle (DMSO)
[9] = higher concentrations (1 μM and 10 μM)

| Structure (SMILES) | phosphorylation of PKCζ/λ [1] | phosphorylation of JAK2 [2] | glucose uptake [3, 8] | glucose uptake ([3]; 0.1 nM) | glucose uptake ([3]; 1 nM) | glucose uptake ([3]; 10 nM) | glucose uptake ([3]; 100 nM) | glucose uptake ([3]; 1 μM) | glucose uptake ([3]; 10 μM) | glucose uptake, shape of concentration dependence [3] | compound-induced GLUT4 translocation after siRNA for AMPK [4] | compound-induced GLUT4 translocation after siRNA for JAK2 [4] | Akt phosphorylation at Thr308 and Ser473 ([5]; 10 nM) | Akt phosphorylation at Ser473 [5] | AMPK phosphorylation ([6]; 0.1 nM and 1 nM) | AMPK phosphorylation [6, 9] | JAK2 phosphorylation ([2]; physiological concentration range (0.1–10 nM)) | compound-induced GLUT4 translocation after siRNA for JAK3 ([4]; siJAK3 50 nM 48 h, 1 nM isorhamnetin, not significant) | Akt phosphorylation ([5]; 0.1–10 nM) | phosphorylation of STAT3 [7] |
| --- | --- | --- | --- | --- | --- | --- | --- | --- | --- | --- | --- | --- | --- | --- | --- | --- | --- | --- | --- | --- |
| O=c1c(O)c(-c2ccc(O)c(O)c2)oc2cc(O)cc(O)c12 [quercetin, 3,3′,4′,5,7-pentahydroxy flavone] | phosphorylated | induced phosphorylation of JAK2 | increased glucose uptake in a dose-dependent manner | significant increase | significant increase | decreased glucose uptake | decreased glucose uptake | significant increase | significant increase | biphasic increase in glucose uptake | almost completely abolished | without affecting | increased Akt phosphorylation | significantly increased Akt phosphorylation | promoted AMPK phosphorylation | induced phosphorylation of AMPK |  |  |  |  |
| COc1cc(-c2oc3cc(O)cc(O)c3c(=O)c2O)ccc1O [isorhamnetin, 3′-O-methyl quercetin] |  | induced phosphorylation of JAK2 | increased glucose uptake in a dose-dependent manner |  | significant increase | decreased glucose uptake | decreased glucose uptake | significant increase | significant increase | biphasic increase in glucose uptake | failed to suppress | abolished |  | significantly increased Akt phosphorylation |  | induced phosphorylation of AMPK | effectively promoted | slightly decreased | did not affect Akt phosphorylation | increased |
